# Measurements from patent publication US9156838B2, “Fused heterocyclic compound” (Sumitomo Chemical Company, Limited, priority 2012, dated 2015).
# Test system: Blattella germanica
# Assay: Test Example 9: treated filter paper with sucrose bait, Blattella germanica male imagoes
# Assay type: in vivo
# Details: 500 ppm, 0.7 ml on filter paper, after 6 days
# Description: The formulations of Compounds 3 and 10 as obtained in Formulation Example 5 were diluted with water, so as to have a concentration of the active ingredient of 500 ppm, to prepare a test drug solution.
# A filter paper having a diameter of 5.5 cm was spread on the bottom of a polyethylene cup having the same diameter and 0.7 ml of the test drug solution was added dropwise onto the filter paper, and 30 mg of sucrose was uniformly placed as bait. Into the polyethylene cup, 2 male imagoes of Blattella germanica were released, and the cup was sealed with a lid. After 6 days, the life and death of Blattella germanica was examined, and the death rate was calculated.
row,SMILES,death rate [%]
1,CCS(=O)(=O)c1cc([S+]([O-])C(F)(F)F)ccc1-c1nc2cc(C(F)(F)F)cnc2n1C (centres unmarked) [Compound 3],100
2,"CCS(=O)(=O)c1cc(SC(F)(F)F)ccc1-c1nc2cc(C(F)(F)C(F)(F)F)cnc2n1C [Compound 10, 2-(2-ethylsulfonyl-4-trifluoromethylsulfanylphenyl)3-methyl-6-pentafluoroethyl-3H-imidazo[4,5-b]pyridine]",100
